Experimental data published in ChEMBL document CHEMBL1137423, “Nanomolar inhibition of the enterobactin biosynthesis enzyme, EntE: synthesis, substituent effects, and additivity” (Bioorg Med Chem Lett, 2006).

How the values were obtained:
[1] = molecular target: T1, Enterobactin synthase component E (Escherichia coli K-12, UniProt P10378); experiment: Binding affinity to EntE; settings: read-out: Ki app
T1 sequence (P10378 whole entry): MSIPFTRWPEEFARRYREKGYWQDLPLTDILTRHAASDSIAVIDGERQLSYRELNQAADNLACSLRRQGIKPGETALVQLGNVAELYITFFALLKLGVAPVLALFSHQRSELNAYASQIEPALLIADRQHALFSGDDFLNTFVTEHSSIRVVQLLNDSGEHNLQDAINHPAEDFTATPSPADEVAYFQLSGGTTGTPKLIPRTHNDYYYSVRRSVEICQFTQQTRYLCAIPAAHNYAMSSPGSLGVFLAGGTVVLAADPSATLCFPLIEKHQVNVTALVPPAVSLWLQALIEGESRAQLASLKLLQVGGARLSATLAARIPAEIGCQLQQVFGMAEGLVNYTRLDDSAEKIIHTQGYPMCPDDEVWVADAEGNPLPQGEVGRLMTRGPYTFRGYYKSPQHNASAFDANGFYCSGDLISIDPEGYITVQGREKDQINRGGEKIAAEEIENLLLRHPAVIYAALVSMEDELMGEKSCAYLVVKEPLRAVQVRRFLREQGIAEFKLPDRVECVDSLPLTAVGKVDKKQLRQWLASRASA

[2] = molecular target: T2, Enterobactin synthase component E (Escherichia coli K-12) (UniProt P10378); experiment: Inhibition of EntE at 0.0006 M
T2 sequence (whole entry): T1 sequence (P10378 whole entry)

[3] = molecular target: T1, Enterobactin synthase component E; experiment: Binding affinity to EntE corrected to substrate competition

Compound	Ki [1] [µM]	inhibition [2] [%]	Ki [3] [µM]
O=C(NOP(=O)(O)OC[C@H]1O[C@@H](n2cnc3cncnc32)[C@H](O)[C@@H]1O)c1ccccc1	13		
O=C(NOP(=O)(O)OC[C@H]1O[C@@H](n2cnc3cncnc32)[C@H](O)[C@@H]1O)c1ccccc1O	0.037		
CC(=O)NOP(=O)(O)OC[C@H]1O[C@@H](n2cnc3cncnc32)[C@H](O)[C@@H]1O	≥ 1000	< 10	
O=C(NOP(=O)(O)OC[C@H]1O[C@@H](n2cnc3cncnc32)[C@H](O)[C@@H]1O)c1cccc(O)c1O	0.009		0.0045
